Assay results published in US9668959B2, “A3 adenosine receptor ligands for modulation of pigmentation” (ORADIN PHARMACEUTICAL LTD., priority 2009, dated 2017).

Assays:
[1] = tested on: human skin explants; experiment: Ex vivo human skin organ culture, pigmentation by DOPA staining and light transmission; type: cell-based; details: for number of dark-stained DOPA positive melanocytes (D-P-M) compared to control: IB-MECA or MRS-1523 10 or 50 μM, hydroquinone 100 μM, FIGS. 8B and 8D; for melanin levels in skin explants: 10 or 50 μM, 12 days of exposure
Protocol: Samples of human breast skin obtained during breast surgery were cut into pieces (0.5×0.5 cm) and cultured in DMEM medium (described above) in 6 well plates and incubated at 37° C. with 5% CO2 for 12 days. […] Treated skin samples were washed with PBS and the epidermal sheets were separated from the dermis and incubated in 0.1% L-3,4-DOPA in PBS for 4 h at 37° C. The epidermis sheets were then fixed with 4% formaldehyde solution, dehydrated by graded alcohol, cleared in xylene, and mounted on glass slides. DOPA positive melanocytes were visualized by light microscopy (×400 magnification). […] Light transmission of each area in the epidermis sheet was calculated and expressed as a mean of density of three images.

[2] = tested on: human breast skin; experiment: Ex vivo human skin organ culture, pigmentation by Fontana-Masson stain; type: cell-based; details: for melanin accumulation and/or deposition in keratinocytes (histological appearance): FIG. 9
Protocol: Formalin fixed paraffin embedded skin sections from samples of human breast skin treated with IB-MECA, MRS-1523 or hydroquinone as described for FIG. 8, were evaluated for Fontana-Masson staining and visualized by light microscopy (×400). IBMX (100 μM) was used as a positive control for induction of melanogenesis. K, keratinocytes; M, melanocytes.
Samples of human breast skin obtained during breast surgery were cut into pieces (0.5×0.5 cm) and cultured in DMEM medium (described above) in 6 well plates and incubated at 37° C. with 5% CO2 for 12 days. Skin samples were topically treated with 10 or 50 μM of various A3 adenosine receptor ligands or 100 μM hydroquinone three times during the incubation period and the medium was exchanged every 3 days.

[3] = tested on: B16 melanocytes; experiment: Microscopy of melanosome level and distribution in treated B16 melanocytes; type: cell-based, murine; details: 10 μM, 24 h, FIG. 3A
[4] = tested on: Akt; experiment: Akt phosphorylation in serum starved B16 melanocytes (western blot); type: cell-based, murine; details: 10 μM, up to 3 h
Protocol: (§1) B16 melanocytes grown in 6-well plates were serum starved overnight and then incubated in the presence of IB-MECA or MRS-1523 (10 μM), for different time intervals at 37° C. Cells were then rinsed with ice cold PBS and lysed by addition of RIPA buffer containing: proteinase inhibitor (PIC, 1:50 v/v), 0.1 mM phenylmethylsulphonylfluoride (PMSF) and 1 mM sodium orthovandate. Cells debris was removed by centrifugation. The protein level in the supernatants was determined using BSA as standard. Equal amounts of the sample (20 μg) were separated by SDS-PAGE using 10% polyacrylamide gels. The resolved proteins were then electroblotted onto nitrocellulose membrane. Membranes were blocked with 1% bovine serum albumin and incubated with anti-ERK-2 antibody (1:1000) or anti-phospho-ERK antibody (1:10000) for 1 h at room temperature, or with anti-Akt-1 antibody (1:1000) or with anti-phospho-Akt antibody […] at 4° C. for 24 h. Blots were then washed and incubated with horseradish peroxidase (conjugated secondary antibodies), for 1 hour at room temperature. The proteins were detected using ECL kit. For the detection of ERK phosphorylation after 72 hours of exposure to the ligands, non-starved cells were used (with 10% FCS).

[5] = tested on: Mitf; experiment: Mitf expression and localization in B16 melanocytes (immunostaining, confocal microscopy); type: cell-based, murine; details: 10 μM; for Mitf expression: 3 h or 24 h, FIG. 7
Protocol: B16 melanocytes were grown for 24 h on glass cover-slips coated with poly-L-lysine (500 ug/ml) in 6 wells plates in the presence of IB-MECA or MRS-1523 (10 μM), for 3 h or 24 h at 37° C. Cells were fixed in 4% formaldehyde in phosphate buffered saline (PBS) for 1 h at room temperature. […] To block non-specific interaction of the antibodies, cells were incubated with PBS (1% BSA, 0.1% Triton X-100). […] Cells were washed three times with PBS and mounted with Fluoromount (Sigma). Cells were visualized by confocal microscopy (excitation 553 and emission at 568, Lieca).

[6] = tested on: B16 melanocytes; experiment: Melanin assay (melanin in cell lysates and media) in B16 melanocytes; type: cell-based, murine; details: for melanin secretion to the media, visual (photograph): FIG. 3E; for detectable levels of melanin secreted to the medium (extracellular): after 24 hours of exposure; for increase of the total melanin level: FIG. 1B
Protocol: B16 F1 melanoma cells were grown adherently and maintained in DMEM (without phenol red), containing 10% fetal calf serum, 1% antibiotics (penicillin, streptomycin and nystatin, each at 100 U/ml), and 2 mM L-glutamine. Cells were cultured at 37° C. in 5% CO2, and passaged two to three times weekly at a ratio of 1:10.
Melanin content was determined as reported by Sato et al., (2008), Biol. Pharm. Bull., 31(1):33-7, with modifications. Cells (6.5×10^4) were seeded into 6 well plates with 5 ml of DMEM medium (described above) and incubated at 37° C. with 5% CO2 for 3-4 hours to enable cell adherence. Cells were then exposed to test chemicals (IB-MECA, MRS-1523 or kojic acid) at the desired concentration and incubation periods. After the treatment, the supernatants were collected to determine the amount of melanin secreted to the medium. Cells were washed with PBS, detached by incubation with trypsin/EDTA and then DMEM with serum (0.75 ml) was added to each well. Cells were collected by centrifugation and lysed by exposure to 2N NaOH (1 ml) at 60° C. for 1 h and the melanin content was determined by measuring the absorption at 400 nm. The amount of protein in each lysate was determined using bovine serum albumin is used as the standard. The amount of melanin in each sample was calculated using synthetic melanin as standard. The results were expressed as the melanin content per mg protein (μg/mg protein). To compare among treatments, the results were expressed as percent relative to control.

[7] = tested on: ERK1/2; experiment: ERK1/2 phosphorylation in B16 melanocytes (western blot); type: cell-based, murine; details: for ERK phosphorylation: 72 hours of exposure, non-starved cultures (10% FCS), FIG. 6B
Protocol: as §1
ERK phosphorylation in non-starved cultures (containing 10% FCS) after 72 hours of exposure to the ligands was examined.

[8] = tested on: A3 adenosine receptor; details: cited from earlier work
[9] = 10 μM, serum starved cells, FIG. 6A
[10] = highest IB-MECA concentration, 5 days, FIG. 1A

CCCOC(=O)c1c(-c2ccccc2)nc(CC)c(C(=O)SCC)c1CCC [MRS-1523, 3-propyl-6-ethyl-5[(ethylthio)carbonyl]-2-phenyl-4-propyl-3-pyridine carboxylate]
pigmentation decreased by (light transmission through epidermal sheets after DOPA staining) ([1]; 10 μM, 12 days): 80+21.8%
pigmentation decreased by (light transmission through epidermal sheets after DOPA staining) ([1]; 50 μM, 12 days): 49.5 ± 6.9%
number of dark-stained DOPA positive melanocytes (D-P-M) compared to control ([1]; 12 days): decreased number
melanin levels in skin explants ([1]; topical): decreased melanin levels
melanin accumulation and/or deposition in keratinocytes (histological appearance) [2]: lesser extent of melanin accumulation and/or deposition in the keratinocytes
pigmentation of Fontana-Masson stained skin sections compared to control ([2]; concentration not given): decreased pigmentation
melanosome level and distribution in the cytosol [3]: more melansomes were observed in the cell periphery and in the dendritic sites of the control and IB-MECA treated melanocytes as compared to MRS-1523 treated cells
Akt phosphorylation on continued exposure [4]: downregulation of P-Akt
Mitf expression [5]: very low Mitf expression
melanin level in the cells decreased by ([6]; 1 μM, 5 days): 27±5.7%
total melanin decreased by ([6]; 1 μM, 5 days): 37±5.7%
melanin level in the cells decreased by ([6]; 5 μM, 5 days): 24±1.7%
total melanin decreased by ([6]; 5 μM, 5 days): 24±1.9%
decrease in the overall melanin level ([6]; 10 μM, 5 days): 88±1.3%
melanin secretion to the media, visual (photograph) ([6]; 10 μM, 5 days): visually observable decrease in melanin
detectable levels of melanin secreted to the medium (extracellular) ([6]; 10 μM): not observed
total melanin level decreased by ([6]; 10 μM, four days (96 h)): 67±4.4%
melanin level within the cells decreased by ([6]; 40 μM, 5 days, FIG. 2A): 11±2.3%
melanin secretion blocked by ([6]; 40 μM, 5 days, FIG. 2A): 88±1.7%
decrease in total melanin ([6]; 40 μM, 5 days, FIG. 2B): 67±1.07%
decrease of the intracellular melanin ([6]; "this treatment" (concentration unclear), 5 days): 48%±4.9
secreted and total melanin levels compared to control ([6]; all concentrations within 1-40 μM, 5 days): lower than that of the control
time to induced phosphorylation of ERK 1 [7, 9]: ≤ 30 min
time to induced phosphorylation of ERK 2 [7, 9]: ≤ 10 min
ERK phosphorylation [7]: stimulated phosphorylation of both ERK1 and ERK 2

CNC(=O)[C@H]1O[C@@H](n2cnc3c(NCc4cccc(I)c4)ncnc32)[C@H](O)[C@@H]1O [IB-MECA, N^6-(3-iodobenzyl) adenosine-5′-(N-methyluronamide)]
selectivity for the A3 adenosine receptor versus either the A1 or A2A receptors [8]: 50 fold
pigmentation increased by (light transmission through epidermal sheets after DOPA staining) ([1]; 10 μM, 12 days): 27+3.9%
pigmentation increased by (light transmission through epidermal sheets after DOPA staining) ([1]; 50 μM, 12 days): 36+2.6%
number of dark-stained DOPA positive melanocytes (D-P-M) compared to control ([1]; 12 days): increased number
melanin levels in skin explants ([1]; topical): increased melanin levels
pigmentation of Fontana-Masson stained skin sections compared to control ([2]; 10 μM): increased pigmentation
melanin accumulation and/or deposition in keratinocytes (histological appearance) [2]: elevation in melanin accumulation and/or deposition in the adjacent keratinocytes
melanosome level and distribution in the cytosol [3]: melanosomes were accumulated in the perinuclear areas
Akt phosphorylation on continued exposure [4]: increased phosphorylation of Akt
time to translocation of Mitf protein to the nucleus [5]: ≤ 3 h
Mitf expression [5]: highly expressed
Mitf expression in cytoplasm and nucleus ([5]; after 24 h of exposure): remained high
increase of the total melanin level ([6]; 5 μM, 5 days): 220±19.4%
level of total melanin ([6]; 10 μM, 72 hours of exposure): non-significantly increased
increase in the total melanin level ([6]; 10 μM, 120 h): 537±31.9%
increase of the total melanin level ([6]; 10 μM, 5 days): 369±1%
melanin secretion to the media, visual (photograph) ([6]; 10 μM, 5 days): visually observable increase in melanin
detectable levels of melanin secreted to the medium (extracellular) ([6]; 10 μM): not observed
total melanin level increased by ([6]; 10 μM, four days (96 h)): 198±12.1%
increase of the total melanin level ([6]; 40 μM, 5 days): 441±53.8%
intracellular melanin level increased by [6, 10]: 143±4.1%
secretion of melanin to the media increased by [6, 10]: 554±23.8%
level of ERK phosphorylation ([7]; 10 μM, 10 min to 3 h, serum starved cells, FIG. 6A): did not increase the level of ERK phosphorylation
ERK phosphorylation [7]: did not appear to affect ERK phosphorylation

CC(C)Cn1c(=O)n(C)c(=O)c2[nH]cnc21 [IBMX, 3-isobutyl-1-methyl-xanthine]
pigmentation of Fontana-Masson stained skin sections compared to control ([2]; 100 μM, positive control): increased pigmentation

Oc1ccc(O)cc1 [hydroquinone]
number of dark-stained DOPA positive melanocytes (D-P-M) compared to control ([1]; 12 days): increased number
skin pigmentation ([1]; topical, 100 μM, 12 days): increased skin pigmentation

O=c1cc(CO)occ1O [kojic acid]
effect on melanin synthesis and secretion ([6]; 5 days, FIG. 4A): both melanin synthesis (overall melanin levels) and secretion (melanin level in the medium) were affected
inhibition in the total melanin level ([6]; 5 days, concentration not given, FIG. 4B): 51%±2.4
